From patent US4985445A, “Cancer cell metastasis inhibitors and novel compounds” (Meiji Seika Kaisha, Ltd., priority 1988, dated 1991)
Like-named read-outs stand apart in the source and are kept apart here.

Columns and labels:
[1] = Acute toxicity (LD50) by mice; conditions: mouse, in vivo, ip
[2] = tested on: B16 subline of high pulmonary metastatic potential; conditions: Table 2, B16 subline, 3 days;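 also: + means growth and ± means marked inhibition and - means cell death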
Description: (§1) The B16 subline of high pulmonary metastatic potential and murine tumor cell line L 929 were cultured in DME medium supplemented with 10% bovine fetal serum at 37° C. in the presence of 5% CO2. Then, cells were detached from the Petri dish with trypsin-EDTA solution. The B16 subline and L 929 were suspended in the medium described above in 1×10^4 cells/ml and 1×10^3 cells/ml, respectively. Each suspension, 150 μl, was added to 50 μl of N-(3-phenylpropyl)-1-deoxynojirimycin solution or Adriamycin (control) solution. Incubation was performed for 3 days for the B16 subline and for 4 days for L 929 strain.
as §1, with “of N-(4-phenoxy-trans-2-butenyl)-1-deoxynojirimycin” for “of N-(3-phenylpropyl)-1-deoxynojirimycin”, “days in” for “days for”, “L 929.” for “L 929 strain.”
as §1, with “of D-glucaro-δ-lactam calcium salt” for “of N-(3-phenylpropyl)-1-deoxynojirimycin”, “(control) solutions.” for “(control) solution.”, “days in” for “days for”, “L 929.” for “L 929 strain.”
The B16 subline of high pulmonary metastatic potential and murine tumor cell line L 929 were cultured in DME medium supplemented with 10% bovine fetal serum at 37° C. in the presence of 5% CO2. Then, cells were detached from the Petri dish with trypsin-EDTA solution. The B16 subline and L 929 were suspended in the medium described above in 1×10^4 cells/ml and 1×10^3 cells/ml, respectively. Each suspension, 150 μl, was added to 50 μl of 2,6-di-O-(1-(p-chlorobenzoyl)-5-methoxy-2-methylindole-3-acetyl)-D-gluco-δ-lactam solution or and Adriamycin (control) solutions. Incubation was performed for 3 days in the B16 subline and for 4 days in L 929.
The B16 subline of high pulmanary metastatic potential and murine tumor cell line L 929 were cultured in DME medium supplemented with 10% bovine fetal serum at 37° C. in the presence of 5% CO2. Then, cells were detached from the Petri dish with trypsin-EDTA solution. The B16 subline and L 929 were suspended in the medium described above in 1×10^4 cells/ml and 1×10^3 cells/ml, respectively. Each suspension, 150 μl, was added to 50 μl of 6-O-triphenylmethyl-D-gluco-δ-lactam solution or Adriamycin (control) solutions. Incubation was performed for 3 days in the B16 sibline and for 4 days in L 929.
The B16 subline of high pulmonary metastatic potential was inoculated into DME medium supplemented with 10% bovine fetal serum and 30 μg/ml of 1-deoxynojirimycin was added thereto followed by incubation at 37° C. for 3 days in the presence of 5% CO2. […] Next, the cells were detached from the Petri dish with trypsin-EDTA solution. The cells were suspended in PBS- in 1×10^6 cells/ml as viable cells. This suspension, 0.1 ml, was intravenously injected in the tail vein of the mouse BDF1 (8 week age, male; 1 group, 3 mice). After feeding for 14 days, the mouse was sacrificed to excise the lungs. The number of colonies of the B16 subline on the surface of and in the lungs was counted.

OC[C@@H]1[C@@H](O)[C@H](O)[C@@H](O)CN1CCCc1ccccc1 [N-(3-Phenylpropyl)-1-deoxynojirimycin, N-(3-phenylpropyl)-1-deoxynojirimycin]
LD50 [1]: > 500 mg/kg
Growth ([2]; 30 μg/ml): +
Growth ([2]; 100 μg/ml): +
Growth ([2]; 300 μg/ml): ±
